Measured values from article PMC11873722 (Cancer Discovery, 2024).
One block for each molecule: values may come before it.

What was measured:
[1] = target: RAF1(RBD):KRAS^G12C(ON) interaction in MIA PaCa-2 cells (Homo sapiens, UniProt P01116, G12C); test: RAS:RAF ELISA assay in MIA PaCa-2 cells; type: cell-based; conditions: 1 µmol/L
[2] = Free drug exposure in LUN055 PDX study; type: in vivo, mouse
KRAS^G12C NSCLC = conditions: patients with NSCLC with prior KRAS^G12C(OFF)-only inhibitor treatment; cited from earlier work

RAF1(RBD):KRAS^G12C(ON) interaction in MIA PaCa-2 cells, sequence (P01116 1-188 isoform P01116-2 G12C): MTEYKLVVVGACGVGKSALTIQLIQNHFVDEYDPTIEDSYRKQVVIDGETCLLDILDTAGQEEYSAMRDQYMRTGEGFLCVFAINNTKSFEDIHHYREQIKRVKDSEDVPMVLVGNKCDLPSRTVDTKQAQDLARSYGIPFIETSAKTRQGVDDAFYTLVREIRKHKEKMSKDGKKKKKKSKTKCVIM

- time required to achieve maximal activity [1]: more than 60 minutes
SMILES: C=CC(=O)N1CCN(c2nc(OC[C@@H]3CCCN3C)nc3c(F)c(-c4nc(N)cc(C)c4C(F)(F)F)c(Cl)cc23)[C@@H](C)C1 [GDC-6036]

- free AUC0–24 hours ([2]; 100 mg/kg sotorasib): 1,563 hours × ng/mL
- free drug concentration higher compared with BBO-8520 ([2]; 100 mg/kg sotorasib vs 30 mg/kg BBO-8520): 20 fold
SMILES: C=CC(=O)N1CCN(c2nc(=O)n(-c3c(C)ccnc3C(C)C)c3nc(-c4c(O)cccc4F)c(F)cc23)[C@@H](C)C1 [Sotorasib]

SMILES: CCn1c(-c2cccnc2[C@H](C)OC)c2c3cc(ccc31)N1CCO[C@@H](C[C@H](NC(=O)[C@H](C(C)C)N(C)C(=O)C3(F)CCN(C(=O)C#CC(C)(C)N(C)C)CC3)C(=O)N3CCC[C@H](N3)C(=O)OCC(C)(C)C2)C1 [RMC-6291]
- objective response rate (KRAS^G12C NSCLC): 50%
